Experimental data published in US4443619A, “Chlorocitric acids” (Hoffmann-La Roche Inc., priority 1981, dated 1984).

Test: Body weight and food intake in meal-fed rats, oral administration, 17 day study (Example 21)
Format: in vivo, Charles River female rats
Details: 17 days
Description: Two month old Charles River female rats (Charles River Breeding Laboratories, Wilmington, Mass.) were individually housed in wire-bottomedcages in a temperature-regulated (22° C.) light-controlled room (12 hr light, 6 a.m. to 6 p.m. and 12 hr dark, 6 p.m. to 6 a.m.). […] On the 8th day, the animals were administered water or (-)-threo-chlorocitric acid at the indicated concentration by oral intubation 30 min before the 3 hr meal. Treatment was continued for 17 days. Food cups were weighed immediately after the meal. The amount of body weight gained and food consumed during the period was determined.

[1] = G-70, 0.25 mmoles (57 mg)/kg oral
[2] = G-70, 0.50 mmoles (114 mg)/kg oral
[3] = G-70, 1.00 mmoles (227 mg)/kg oral

O=C(O)C[C@@](O)(C(=O)O)[C@@H](Cl)C(=O)O [(-)-threo-Chlorocitric acid, (-)-threo-chlorocitric acid]
CBWG (cumulative body weight gain) [1]: 12 ± 4 g | CFC (cumulative food consumption) [1]: 209 ± 10 g | FBW (final body weight) [1]: 211 ± 7 g | CBWG (cumulative body weight gain) [2]: -6 ± 6 g | CFC (cumulative food consumption) [2]: 176 ± 9 g | FBW (final body weight) [2]: 188 ± 7 g | CBWG (cumulative body weight gain) [3]: -29 ± 6 g | CFC (cumulative food consumption) [3]: 153 ± 4 g | FBW (final body weight) [3]: 169 ± 6 g
